The text below walks through data of US20100130549A1, “PSYCHOTROPIC COMPOUNDS, COMPOSITIONS AND METHODS OF USE” (priority 2007, published 2010).

The target in data set [1] is T1, Adrenergic α2A (Homo sapiens, UniProt P08913).
T1 construct: 203620
T1 sequence (P08913 1-465): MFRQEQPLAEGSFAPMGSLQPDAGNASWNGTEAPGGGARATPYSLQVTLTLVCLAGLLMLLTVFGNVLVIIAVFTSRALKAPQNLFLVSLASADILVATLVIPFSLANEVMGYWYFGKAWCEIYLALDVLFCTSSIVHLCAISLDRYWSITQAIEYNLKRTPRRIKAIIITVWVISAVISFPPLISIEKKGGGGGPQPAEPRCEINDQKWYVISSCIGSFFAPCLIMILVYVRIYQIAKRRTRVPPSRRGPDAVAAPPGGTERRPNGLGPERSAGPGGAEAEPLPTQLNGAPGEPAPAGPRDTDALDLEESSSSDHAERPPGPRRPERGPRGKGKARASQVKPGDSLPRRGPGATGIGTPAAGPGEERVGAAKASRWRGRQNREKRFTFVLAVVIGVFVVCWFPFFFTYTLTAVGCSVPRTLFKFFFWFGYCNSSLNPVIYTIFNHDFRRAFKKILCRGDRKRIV
Put plainly: Radioligand binding assay, Adrenergic α2A. An excerpt:
. Table 1 provides data produced via a receptor binding assay and IC50 and Ki determination. […] In addition, the compound of formula (Ia) has a potent DAT inhibition, which is indicative of dopaminergic uptake inhibition and increased DA activity. In addition to the effect on SERT and DAT, the compound of formula (Ia) inhibited the transporter of Norepinephrine (NET), and several neurotransmitter's receptors like alpha2A and alpha2C receptors, alpha 1A and alphal C, 5HT2A and 5HT2C, signal histamine2 and dopamine D1. This specific profile is in line with the data on antidepressant, anxiolytic and moderate neuro-stimulation activity observed in the animal model studies.
With regard to the data provided in Table 1, the biochemical assay results are presented as the percent inhibition of specific binding or activity throughout the report. For primary assays, only the lowest concentration with a significant response judged by the assays’ criteria, is shown in this summary. […] Unless otherwise requested, primary screening in duplicate with quantitative data (e.g., IC50±SEM, Ki±SEM and nH) are shown.

In data set [2] the test system is ICR mice. Put plainly: Acute toxicity, oral administration. The conditions noted are these: for stimulation behavior (number of rearings): acute oral. The data set is classed as in vivo. The method, then: FIG. 11B illustrates the effect of administering the compound of formula (Ia) on stimulation in ICR mice.
Acute toxicity was assessed in male BALB/c mice that had been orally administered the compound of formula (Ta). The compound of formula (Ia) was administered orally to mice at doses of 20, 25, 75, and 100 mg/kg (4 animals/group). Animals were followed for behavioral changes such as stimulation (number of rearings), and sedation, after 24, 48 and 72 hr. Body weight was determined up to 7 days after drug administration.

By IC50 is commonly meant the midpoint of a concentration-inhibition curve. What is called inhibition is the percentage by which the read-out fell short of the control. Take `CN[C@H]1CC[C@@H](c2ccc(Cl)c(Cl)c2)c2ccc(C#CCCCO)cc21` [compound Ia, (1S-cis)-4-(3,4-dichlorophenyl)-7-(5-hydroxy-1-pentyn-1-yl)-1,2,3,4-tetrahydro-N-methyl-1-naphthalenamine hydroiodide]: in data set [1], the 50% inhibitory concentration (IC50) is 273 nM and the nH is on record as 0.930. In addition, at 1 µM the inhibition in data set [1] (1 μM) was 82%. Further, the Ki in data set [1] (read-out: K1) worked out at 102 nM. Also, in data set [2] (acute oral up to 100 mg/kg), the survival result is “all animals survived” and the tolerability entry is recorded as “well tolerated”. In addition, in data set [2] (24 and 48hr after administration), the “stimulation behavior (number of rearings)” value is “significant increase”. Further, the “stimulation behavior (number of rearings)” value in data set [2] (after 72 hr) is listed as “normalization”.
